Measured values as given in patent US5658500A, “Substituted naphthopyrans” (Transitions Optical, Inc., priority 1995, dated 1997).

What was measured:
[1] = lambda max of the activated (colored) form in the visible spectrum; assay type: physicochemical; set-up: unit not given here; conditions: wavelength of maximum absorption of the activated form, in a diethylene glycol bis(allyl carbonate) composition
Method: (§1) Testing was done with the photochromic naphthopyrans of the Examples incorporated or imbibed into test square polymerizates by one of two different methods. In Method I, the photochromic naphthopyrans of the Examples were incorporated into polymeric samples. The quantity of naphthopyran calculated to yield a 1.5 times 10^-3 molal solution was added to a flask containing 50 grams of a monomer blend of 4 parts ethoxylated bisphenol A dimethacrylate (BPA 2EO DMA), 1 part poly(ethyleneglycol) 600 dimethacrylate, and 0,033 weight percent 2,2'-azobis(2-methyl propionitrile) (AIBN). The naphthopyrans were dissolved into the monomer blend by stirring and gentle heating, if necessary. After a clear solution was obtained, it was poured into a flat sheet mold having the interior dimensions of 2.2 mm×6 inches (15.24 cm)×6 inches (15.24 cm). The mold was sealed and placed in a horizontal air flow, programmable oven set to increase the temperature from 40° C. to 95° C. over a 5 hour interval, hold the temperature at 95° C. for 3 hours and then lower it to 60° C. for at least 2 hours before the end of the curing cycle. After the molds were opened, the polymer sheets were cut using a diamond blade saw into 2 inch (5.1 centimeters) test squares.
(§2) In Method II, the photochromic naphthopyran was imbibed into test square polymerizates prepared from a diethylene glycol bis(allyl carbonate) composition. The test squares measured 1/8 inch (0.3 centimeters)×2 inches (5.1 centimeters)×2 inches (5.1 centimeters). In the imbibition process, the photochromic naphthopyran was dissolved to form a 10 weight percent solution in a 1:9 mixture of ethyl cellulose:toluene. The solution was then spin coated onto the test squares and allowed to dry. Samples were then heated in a hot-air oven at 135°-155°C. for a period of time sufficient to thermally transfer the photochromic into the test squares. […] After cooling, the ethyl cellulose/toluene resin film was removed from the test squares by washing with acetone.
(§3) The ΔOD/Min, which represents the sensitivity of the photochromic compound's response to UV light, was measured over the first five (5) seconds of UV exposure, then expressed on a per minute basis. The saturation optical density (OD) was taken under identical conditions as the ΔOD/Min, except UV exposure was continued for 20 minutes for the examples in Table 1. The lambda max reported in Table 1 is the wavelength in the visible spectrum at which the maximum absorption of the activated (colored) form of the photochromic compound in a diethylene glycol bis(allyl carbonate) composition occurs. The Bleach Rate (T 1/2) is the time interval in seconds for the absorbance of the activated form of the naphthopyran in the test squares to reach one half the highest absorbance at room temperature (75° F., 23.9° C.) after removal of the source of activating light.

[2] = photochromic response of test squares on an optical bench (sensitivity, saturation optical density, bleach rate); assay type: physicochemical; conditions: for ΔOD @ SATURATION: UV exposure 20 minutes; for ΔOD @ SATURATION / ΔOD/MIN SENSITIVITY: 75° F. (23.9° C.); for ΔOD/MIN SENSITIVITY: first five seconds of UV exposure, expressed per minute; for Bleach Rate (T1/2): room temperature (75° F., 23.9° C.) after removal of activating light
Method: as §1
as §2, with “dry.” for “dry. Samples were then heated in a hot-air oven at 135°-155°C. for a period of time sufficient to thermally transfer the photochromic into the test squares.”
The photochromic test squares were tested for photochromic response rates on an optical bench. […] The bench was fitted with a 150 watt Xenon arc lamp, a remote controlled shutter, a copper sulfate bath acting as a heat sink for the arc lamp, a Schott WG-320 nm cut-off filter which removes short wavelength radiation; neutral density filter(s) and a sample holder in which the square to be tested was inserted. A collimated beam of light from a tungsten lamp was passed through the square at a small angle normal to the square. After passing through the square, the light from the tungsten lamp was directed through a photopic filter attached to a detector. The photopic filter passes wavelengths such that the detector mimics the response of the human eye. The output signals from the detector(s) were processed by a radiometer.
Change in optical density (ΔOD) was determined by inserting a test square in the bleached state into the sample holder, adjusting the transmittance scale to 100%, opening the shutter from the Xenon lamp to provide ultraviolet radiation to change the test square from the bleached state to an activated (i.e., darkened) state, measuring the transmittance in the activated state, and calculating the change in optical density according to the formula ΔOD=log(100/%Ta) where %Ta is the percent transmittance in the activated state and the logarithm is to the base 10.
as §3, with “occurs.” for “occurs. The Bleach Rate (T 1/2) is the time interval in seconds for the absorbance of the activated form of the naphthopyran in the test squares to reach one half the highest absorbance at room temperature (75° F., 23.9° C.) after removal of the source of activating light.”

[3] = Method II (imbibed) test square

Compound | LAMBDA MAX (VISIBLE) [1] | ΔOD @ SATURATION ([2]; Method I test square) | ΔOD/MIN SENSITIVITY ([2]; Method I test square) | Bleach Rate (T1/2) ([2]; Method I test square) [s] | ΔOD @ SATURATION [2, 3] | ΔOD/MIN SENSITIVITY [2, 3] | Bleach Rate (T1/2) [2, 3] [s]
COC(=O)c1c2c(c3ccccc3c1OC(C)=O)OC(c1ccccc1)(c1ccc(N(C)C)cc1)C=C2 (centres unmarked) [Example 6, 2-(4-dimethylaminophenyl)-2-phenyl-5-methoxycarbonyl-6-acetoxy-2H-naphtho[1,2-b]pyran] | 591 | 0.30 | 0.27 ΔOD/MIN | 70 |  |  | 
CCn1c2ccccc2c2ccc(C3(c4ccccc4)C=Cc4c(C(=O)OC)c(OC(C)=O)c5ccccc5c4O3)cc21 (centres unmarked) [Example 4, 2-(9-ethylcarbazol-2-yl)-2-phenyl-5-methoxycarbonyl-6-acetoxy-2H-naphtho[1,2-b]pyran] | 528 |  |  |  | 0.46 | 0.67 ΔOD/MIN | 270
COC(=O)c1c2c(c3ccccc3c1O)OC(c1ccccc1)(c1ccc(N3CCOCC3)cc1)C=C2 (centres unmarked) [Example 1, 2-(4-morpholinophenyl)-2-phenyl-5-methoxycarbonyl-6-hydroxy-2H-naphtho[1,2-b]pyran] | 511 | 1.36 | 0.64 ΔOD/MIN | 193 |  |  | 
COC(=O)c1c2c(c3ccccc3c1C)OC(c1ccccc1)(c1ccc(N(C)C)cc1)C=C2 (centres unmarked) [Example 7, 2-(4-dimethylaminophenyl)-2-phenyl-5-methoxycarbonyl-6-methyl-2H-naphtho[1,2-b]pyran] | 584 | 0.51 | 0.20 ΔOD/MIN | 200 |  |  | 
COC(=O)c1c2c(c3ccccc3c1OC(C)=O)OC(c1ccc(N(C)C)cc1)(c1ccc(N(C)C)cc1)C=C2 [Example 8, 2,2-bis (4-dimethylaminophenyl)-5-methoxycarbonyl-6-acetoxy-2H-naphtho[1,2-b]pyran] | 618 | 0.07 | 0.16 ΔOD/MIN | 19 |  |  | 
COC(=O)c1c2c(c3ccccc3c1OC)OC(c1ccccc1)(c1ccc(N3CCOCC3)cc1)C=C2 (centres unmarked) [Example 2, 2-(4-morpholinophenyl)-2-phenyl-5-methoxycarbonyl-6-methoxy-2H-naphtho[1,2-b]pyran] | 541 | 0.95 | 0.29 ΔOD/MIN | 292 |  |  | 
COC(=O)c1c2c(c3ccccc3c1OC(C)=O)OC(c1ccccc1)(c1ccc3c4ccccc4n(-c4ccccc4)c3c1)C=C2 (centres unmarked) [Example 5, 2-(9-phenylcarbazol-2-yl)-2-phenyl-5-methoxycarbonyl-6-acetoxy-2H-naphtho[1,2-b]pyran] | 520 | 0.88 | 0.31 ΔOD/MIN | 70 |  |  | 
COC(=O)c1c2c(c3ccccc3c1OC(C)=O)OC(c1ccccc1)(c1ccc(N3CCOCC3)cc1)C=C2 (centres unmarked) [Example 3, 2-(4-morpholinophenyl)-2-phenyl-5-methoxycarbonyl-6-acetoxy-2H-naphtho[1,2-b]pyran] | 545 | 0.31 | 0.24 ΔOD/MIN | 88 |  |  | 
